According to US20050112607A1, “Rapid and sensitive detection of protein aggregation” (priority 1999, published 2005):

What was measured:
[1] = Colloid/colloid linkage via biotin/streptavidin, color change; assay type: binding; details: streptavidin added to biotin-SAM colloids
Procedure: A set of gold colloids was derivatized with self-assembled monolayers that incorporated biotin-thiols (SAM forming species included C11, 3 ethylene glycol units, then biotin) along with C16 carboxy-terminated thiols (a mixed SAM). Streptavidin, which has four binding sites for biotin, or a random protein (GST) was added to the colloid solutions.

[2] = target: GST (Schistosoma japonicum, UniProt P08515); test: Colloid/colloid color change assay with GST-bound NTA-Ni colloids (irrelevant protein); assay type: binding; details: 100 ul or 50 ul protein per well, room temperature
Sequence of GST (P08515 whole entry): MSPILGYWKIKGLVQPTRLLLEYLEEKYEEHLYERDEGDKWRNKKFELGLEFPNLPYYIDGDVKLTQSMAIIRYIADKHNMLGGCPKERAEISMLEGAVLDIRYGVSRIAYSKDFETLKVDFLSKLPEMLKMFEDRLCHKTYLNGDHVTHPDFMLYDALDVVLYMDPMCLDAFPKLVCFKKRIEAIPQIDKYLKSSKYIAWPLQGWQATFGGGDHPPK
Procedure: (§1) 600 microliters colloids, derivatized with a self-assembled monolayer that presents nitrilo tri-acetic acid, NTA (for the capture of histidine-tagged proteins), was mixed with 60 microliters of 500 micromolar histidine-tagged RGD-motif-containing peptide. 600 microliters of a second set of NTA-Ni presenting colloids was mixed with 60 ul of a 500 uM solution of GST, an irrelevant protein, as a negative control. Colloids were spun down and resuspended in phosphate buffer to remove residual unbound protein or peptide. Endostatin and Angiostatin, two proteins implicated in angiogenesis and suspected of binding to regions of vitronectin, such as the RGD peptide, were prepared by dialysis into phoshate-buffered saline solution and then 1:10 dilution into PBS from a stock concentration of 1 mg/mL.
(§2) 400 ul phosphate buffer (pH 7.4), 200 ul either RGD-bound colloids or GST-bound colloids, and either 100 ul endostatin or angiostatin, 50 ul endostatin or angiostatin/50 ul phosphate buffer, or 100 ul phosphate buffer (as a negative control) were added to each well of a crystallization dish. Color change was monitored over time at room temperature. […] The histidine-tagged proteins were then eluted using imidazole, and the samples were analyzed by SDS-PAGE. […]

[3] = system: histidine-tagged RGD-motif-containing peptide; test: Colloid/colloid color change assay with RGD-peptide-bound NTA-Ni colloids; assay type: binding; details: 100 ul or 50 ul protein per well, room temperature, after approximately 15 minutes
Procedure: as §1, §2

[4] = system: resin-immobilized RGD peptide; test: NTA-Ni agarose resin binding, imidazole elution, SDS-PAGE (RGD peptide)
Procedure: (§3) 400 ul phosphate buffer (pH 7.4), 200 ul either RGD-bound colloids or GST-bound colloids, and either 100 ul endostatin or angiostatin, 50 ul endostatin or angiostatin/50 ul phosphate buffer, or 100 ul phosphate buffer (as a negative control) were added to each well of a crystallization dish. Color change was monitored over time at room temperature. […] The color change was more pronounced in the well that contained 100 ul endostatin than in the well that contained 50 ul endostatin/50 ul phospate buffer. […] Row A included colloids and angiostatin. Row B included colloids with endostatin. (Rows C and D are empty wells). Columns 1-3 have RGD peptide immobilized on the colloids. […] have an irrelevant protein, GST, immobilized on the colloid. Columns 1 and 4 contain […] of the relevant drug (endostatin or angiostatin). […] The results were verified by gel electrophoresis. The RGD peptide and histidine-tagged GST were bound to a small amount of NTA-Ni agarose resin at saturating concentration. Endostatin was incubated with the resin and allowed to bind to the protein on the resin. The histidine-tagged proteins were then eluted using imidazole, and the samples were analyzed by SDS-PAGE. […] This assay could be easily adapted for screening of drug candidates that either mimic the RGD-binding characteristic of endostatin or bind to the RGD-binding domains on endostatin. […]

[5] = target: resin-immobilized GST (Schistosoma japonicum, UniProt P08515); test: NTA-Ni agarose resin binding, imidazole elution, SDS-PAGE (GST)
Sequence of resin-immobilized GST (P08515 whole entry): as above
Procedure: as §3

Substance | Color change of biotin-presenting colloid solution [1] | Color change of GST-bound colloids [2] | Color change from red to blue of RGD-peptide-bound colloids [3] | Binding to resin-immobilized RGD peptide (SDS-PAGE) [4] | Binding to resin-immobilized GST (SDS-PAGE) [5]
Streptavidin | immediately turned blue | – | – | – | –
angiostatin | – | No color change occurred | No color change occurred | – | –
endostatin | – | No color change occurred | a color change from red to blue was visible | bound to the resin-immobilized RGD peptide | did not bind to the resin-immobilized GST
